Laboratory results as given in patent US8124626B2, “Methods of treating inflammations and infections with pyridinium salts” (Mycosol, Inc., priority 2007, dated 2012).

How the values were obtained:
Streptococcus pyogenes = settings: Mueller-Hinton agar, 24 hours at 35° C.
Streptococcus faecalis = settings: Mueller-Hinton agar, 24 hours at 35° C.
Streptococcus algalactia = settings: Mueller-Hinton agar, 24 hours at 35° C.
Staphylococcus aureus = settings: Mueller-Hinton agar, 24 hours at 35° C.
Bordella bronchiseptica = settings: Mueller-Hinton agar, 24 hours at 35° C.
Vibrio cholerae = settings: Mueller-Hinton agar, 24 hours at 35° C.
Pasturella multocida = settings: Mueller-Hinton agar, 24 hours at 35° C.
E. coli = settings: Mueller-Hinton agar, 24 hours at 35° C.
Pseudomonas aerugenosa = settings: Mueller-Hinton agar, 24 hours at 35° C.
Candida albicans = settings: Mueller-Hinton agar, 24 hours at 35° C.
Candida tropicalis = settings: Mueller-Hinton agar, 24 hours at 35° C.
Cryptococcus neoformans = settings: Mueller-Hinton agar, 24 hours at 35° C.
Saccharomyces cervisciae = settings: Mueller-Hinton agar, 24 hours at 35° C.
Aspergillus fumigatus = settings: Mueller-Hinton agar, 24 hours at 35° C.
Aspergillus flavus = settings: Mueller-Hinton agar, 24 hours at 35° C.
Fusarium solani = settings: Mueller-Hinton agar, 24 hours at 35° C.
Rhizopus arrihizus = settings: Mueller-Hinton agar, 24 hours at 35° C.
Microsporidium canis = settings: Mueller-Hinton agar, 24 hours at 35° C.
Microsporidium gypseum = settings: Mueller-Hinton agar, 24 hours at 35° C.
Trichophyton equinium = settings: Mueller-Hinton agar, 24 hours at 35° C.
[1] = tested on: Trichophyton mentagrophyt; settings: Mueller-Hinton agar, 24 hours at 35° C.
Trichophyton rubrum = settings: Mueller-Hinton agar, 24 hours at 35° C.
Epidermophyton floccsum = settings: Mueller-Hinton agar, 24 hours at 35° C.
[2] = as compared to the iodide salt
Botrytis cinerea = assay: Plant relevant mold panel, microtiter growth inhibition; format: cell-based; settings: Plant relevance: Vegetable; 18° C. for 7 days, optical density 405 nm
[3] = tested on: Colletotrichum lagenarium; assay: as above; format: cell-based; settings: Plant relevance: Mellons; 18° C. for 7 days, optical density 405 nm
Pyrenophora teres = assay: as above; format: cell-based; settings: Plant relevance: Barley; 18° C. for 7 days, optical density 405 nm
Rhizoctonia solani = assay: as above; format: cell-based; settings: Plant relevance: Rice Sheath; 18° C. for 7 days, optical density 405 nm
Septonia tritici = assay: as above; format: cell-based; settings: Plant relevance: Wheat Leaf; 18° C. for 7 days, optical density 405 nm
Phytophthora infestans = settings: Plant relevance: Tomato; 18° C. for 7 days, optical density 405 nm
Pyricularia oryzae = settings: Plant relevance: Rice; 18° C. for 7 days, optical density 405 nm
[4] = tested on: roundworms, threadworms, and whipworms; settings: reported; U.S. Pat. No. 3,075,975 and 3,085,935; cited from earlier work

## 1-Ethyl-(E,E)-2,6-bis[2-[4-(pyrrolidinyl)phenyl]ethenyl]pyridinium Chloride [formula I]
Streptococcus pyogenes
  MIC: 1.0 µg/mL
Streptococcus faecalis
  MIC: 1.0 µg/mL
Streptococcus algalactia
  MIC: 1.0 µg/mL
Staphylococcus aureus
  MIC: 0.3 µg/mL
Bordella bronchiseptica
  MIC: 1.0 µg/mL
Vibrio cholerae
  MIC: 10.0 µg/mL
Pasturella multocida
  MIC: 3.0 µg/mL
E. coli
  MIC: >100 µg/mL
Pseudomonas aerugenosa
  MIC: >100 µg/mL
Candida albicans
  MIC: <0.006 µg/mL
Candida tropicalis
  MIC: <0.4 µg/mL
Cryptococcus neoformans
  MIC: <0.4 µg/mL
Saccharomyces cervisciae
  MIC: <0.4 µg/mL
Aspergillus fumigatus
  MIC: <0.006 µg/mL
Aspergillus flavus
  MIC: 6.25 µg/mL
Fusarium solani
  MIC: <0.4 µg/mL
Rhizopus arrihizus
  MIC: 6.25 µg/mL
Microsporidium canis
  MIC: 1.6 µg/mL
Microsporidium gypseum
  MIC: 1.6 µg/mL
Trichophyton equinium
  MIC: 1.6 µg/mL
[1]
  MIC: 1.6 µg/mL
Trichophyton rubrum
  MIC: 1.6 µg/mL
Epidermophyton floccsum
  MIC: 1.6 µg/mL
[2]
  stability: increased stability

## CC[n+]1c(/C=C/c2ccc(N3CCCC3)cc2)cccc1/C=C/c1ccc(N2CCCC2)cc1.[I-] [Stilbazium iodide]
Botrytis cinerea
  IC90: 0.5 ppm a.i.
[3]
  IC90: 31 ppm a.i.
Pyrenophora teres
  IC90: 31 ppm a.i.
Rhizoctonia solani
  IC90: 2 ppm a.i.
Septonia tritici
  IC90: 2 ppm a.i.
Phytophthora infestans
  IC90: 2 ppm a.i.
Pyricularia oryzae
  IC90: 8 ppm a.i.
[4]
  anthelmintic effectiveness: effective against roundworms, threadworms, and whipworms
